Converted amounts (≈) assume the structure as drawn. The source made the active and inactive calls. The calls are words filed in the database; no cut-off is given here.
Legend:
[1] = Metabolic stability in mouse liver microsomes assessed as intrinsic clearance at 5 uM measured upto 30 mins per mg protein in presence of NADPH by LC-MS/MS analysis; type: ADME, Microsome; conditions: read-out: CLH
MCF7 [2] = assay: Induction of ROS production in human MCF7 cells assessed as DCFDA intensity at 4.4 uM incubated for 24 hrs by flow cytometric analysis (reference value: 0.95 %); type: functional
MCF7 [3] = assay: Induction of mitochondrial membrane loss in human MCF7 cells assessed as fold change at 4.4 uM incubated for 24 hrs by Mitotracker dye based flow cytometric analysis relative to control; type: functional
MCF7 [4] = assay: Induction of apoptosis in human MCF7 cells assessed as viable cells at 4.4 uM incubated for 24 hrs by Annexin V-FITC/PI staining based flow cytometric analysis (reference value: 88.20 %); type: functional; conditions: read-out: Activity
Cytochrome P450 2C19 = Cytochrome P450 2C19 (Homo sapiens, UniProt P33261); assay: Inhibition of CYP2C19 in human liver microsomes using S-mephenytoin substrate at 1 to 10 uM in presence of NADPH by LC-MS/MS analysis; type: ADME, Microsome; conditions: dose 1-10 µM
Sequence of Cytochrome P450 2C19 (P33261 whole entry): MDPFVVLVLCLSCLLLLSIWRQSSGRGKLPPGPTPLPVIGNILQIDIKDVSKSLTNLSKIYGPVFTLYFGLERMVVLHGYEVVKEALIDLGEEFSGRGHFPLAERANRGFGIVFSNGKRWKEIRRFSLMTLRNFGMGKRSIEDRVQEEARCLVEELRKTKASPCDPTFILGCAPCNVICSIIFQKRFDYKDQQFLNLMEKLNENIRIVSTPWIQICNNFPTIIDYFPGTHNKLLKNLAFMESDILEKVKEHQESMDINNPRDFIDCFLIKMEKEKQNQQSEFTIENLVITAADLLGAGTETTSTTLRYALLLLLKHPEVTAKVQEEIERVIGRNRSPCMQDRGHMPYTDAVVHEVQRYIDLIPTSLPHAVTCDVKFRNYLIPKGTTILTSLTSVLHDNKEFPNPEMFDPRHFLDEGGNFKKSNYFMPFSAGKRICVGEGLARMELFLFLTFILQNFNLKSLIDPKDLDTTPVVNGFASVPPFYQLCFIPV

MCF7 [5] = assay: Anticancer activity against human MCF7 cells assessed as inhibition of cell growth at 4.4 uM preincubated with ML-193 for 1 hrs followed by compound addition and measured after 48 hrs by SRB assay; type: functional, cell-based
Cytochrome P450 1A2 = Cytochrome P450 1A2 (Homo sapiens, UniProt P05177); assay: Inhibition of CYP1A2 in human liver microsomes using […] substrate at 1 to 10 uM in presence of NADPH by LC-MS/MS analysis; type: ADME, Microsome; conditions: dose 1-10 µM
Sequence of Cytochrome P450 1A2 (P05177 whole entry): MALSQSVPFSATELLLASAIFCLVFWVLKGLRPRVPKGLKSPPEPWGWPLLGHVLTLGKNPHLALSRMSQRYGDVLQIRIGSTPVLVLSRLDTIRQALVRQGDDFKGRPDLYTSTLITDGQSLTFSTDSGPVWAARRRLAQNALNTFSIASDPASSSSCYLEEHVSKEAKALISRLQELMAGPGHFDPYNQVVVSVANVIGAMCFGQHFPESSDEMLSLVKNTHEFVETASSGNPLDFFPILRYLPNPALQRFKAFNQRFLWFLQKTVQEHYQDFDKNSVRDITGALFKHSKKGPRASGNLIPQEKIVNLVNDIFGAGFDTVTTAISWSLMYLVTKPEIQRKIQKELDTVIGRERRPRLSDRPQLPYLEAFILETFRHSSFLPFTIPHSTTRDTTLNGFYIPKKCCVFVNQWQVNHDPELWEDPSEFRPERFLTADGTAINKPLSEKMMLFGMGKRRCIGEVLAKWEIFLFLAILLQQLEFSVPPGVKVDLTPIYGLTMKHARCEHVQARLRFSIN

[6] = Solubility of compound in SIF by UV absorbance based analysis; type: physicochemical
MCF7 [7] = assay: Induction of apoptosis in human MCF7 cells assessed as early apoptotic cells at 4.4 uM incubated for 24 hrs by Annexin V-FITC/PI staining based flow cytometric analysis (reference value: 2.93 %); type: functional
MCF7 [8] = assay: Induction of apoptosis in human MCF7 cells assessed as necrotic cells at 4.4 uM incubated for 24 hrs by Annexin V-FITC/PI staining based flow cytometric analysis (reference value: 4.02 %); type: functional
[9] = Metabolic stability in mouse liver microsomes assessed as hepatic extraction ratio at 5 uM measured upto 30 mins in presence of NADPH by LC-MS/MS analysis; type: ADME, Microsome; conditions: read-out: ERH
MCF7 [10] = assay: Anticancer activity against human MCF7 cells assessed as inhibition of cell growth at 4.4 uM preincubated with LY320135 for 1 hrs followed by compound addition and measured after 48 hrs by SRB assay; type: functional, cell-based
[11] = Metabolic stability in human liver microsomes assessed as intrinsic clearance at 5 uM measured upto 30 mins per mg protein in presence of NADPH by LC-MS/MS analysis; type: ADME, Microsome; conditions: read-out: CLH
MCF7 [12] = assay: Anticancer activity against human MCF7 cells assessed as inhibition of cell growth at 4.4 uM preincubated with SR144528 for 1 hrs followed by compound addition and measured after 48 hrs by SRB assay relative to control; type: functional
[13] = Cytotoxicity against human HEK293 cells assessed as inhibition of cell growth incubated for 48 hrs by SRB assay; type: toxicity, cell-based
MCF7 [14] = assay: Anticancer activity against human MCF7 cells assessed as inhibition of cell growth at 4.4 uM preincubated with capsazepine for 1 hrs followed by compound addition and measured after 48 hrs by SRB assay; type: functional, cell-based
HCT-116 [15] = assay: Cytotoxicity against human HCT-116 cells assessed as inhibition of cell growth at 20 uM incubated for 48 hrs by SRB assay relative to control; type: functional
[16] = Metabolic stability in mouse liver assessed as intrinsic clearance at 5 uM measured upto 30 mins in presence of NADPH by LC-MS/MS analysis; type: ADME, tissue-based; conditions: read-out: CLH
[17] = Metabolic stability in human liver assessed as intrinsic clearance at 5 uM measured upto 30 mins in presence of NADPH by LC-MS/MS analysis; type: ADME, tissue-based; conditions: read-out: CLH
MCF7 [18] = assay: Cell cycle arrest in human MCF7 cells assessed as accumulation of cells at G2/M phase at 4.4 uM incubated for 24 hrs by PI staining based flow cytometric analysis (reference value: 13.7 %); type: functional
[19] = Permeability of compound at 100 uM incubated for 16 hrs by PAMPA-BBB assay; type: ADME
[20] = Selectivity index, ratio of IC50 for HEK293 cells to IC50 for human MCF7 cells; type: toxicity; conditions: HEK293 cells versus MCF7 cells, read-out: Ratio IC50
HCT-116 [21] = assay: Cytotoxicity against human HCT-116 cells assessed as inhibition of cell growth incubated for 48 hrs by SRB assay; type: functional, cell-based; conditions: HCT-116, 48 h
[22] = Metabolic stability in human liver microsomes assessed as hepatic extraction ratio at 5 uM measured upto 30 mins in presence of NADPH by LC-MS/MS analysis; type: ADME, Microsome; conditions: read-out: ERH
MCF7 [23] = assay: Cell cycle arrest in human MCF7 cells assessed as accumulation of cells at G1 phase at 4.4 uM incubated for 24 hrs by PI staining based flow cytometric analysis (reference value: 63.9 %); type: functional
MCF7 [24] = assay: Cytotoxicity against human MCF7 cells assessed as inhibition of cell growth at 20 uM incubated for 48 hrs by SRB assay relative to control; type: functional
MCF7 [25] = assay: Anticancer activity against human MCF7 cells assessed as inhibition of cell growth at 4.4 uM preincubated with GW9662 for 1 hrs followed by compound addition and measured after 48 hrs by SRB assay; type: functional, cell-based
MCF7 [26] = assay: Anticancer activity against human MCF7 cells assessed as reduction in cell viability at 4.4 uM incubated for 48 hrs by SRB assay relative to control; type: functional
[27] = Metabolic stability in mouse liver microsomes assessed as half-life at 5 uM measured upto 30 mins in presence of NADPH by LC-MS/MS analysis; type: ADME, Microsome
[28] = Selectivity index, ratio of IC50 for HEK293 cells to IC50 for human HCT-116 cells; type: toxicity; conditions: HEK293 cells versus HCT-116 cells, read-out: Ratio IC50
MCF7 [29] = assay: Induction of apoptosis in human MCF7 cells assessed as late apoptotic cells at 4.4 uM incubated for 24 hrs by Annexin V-FITC/PI staining based flow cytometric analysis (reference value: 4.85 %); type: functional
MCF7 [30] = assay: Cell cycle arrest in human MCF7 cells assessed as accumulation of cells at S phase at 4.4 uM incubated for 24 hrs by PI staining based flow cytometric analysis (reference value: 22.93 %); type: functional
MCF7 [31] = assay: Cytotoxicity against human MCF7 cells assessed as inhibition of cell growth incubated for 48 hrs by SRB assay; type: functional, cell-based; conditions: MCF7, 48 h
[32] = Solubility of compound in water by UV absorbance based analysis; type: physicochemical
[33] = Metabolic stability in human liver microsomes assessed as half-life at 5 uM measured upto 30 mins in presence of NADPH by LC-MS/MS analysis; type: ADME, Microsome
[34] = Solubility of compound in SGF by UV absorbance based analysis; type: physicochemical
MCF7 [35] = assay: Inhibition of colony formation in human MCF7 cells assessed as reduction in number of colonies at subtoxic doses measured after 48 hrs by crystal violet staining based analysis; type: functional, cell-based
MCF7 [36] = assay: Induction of apoptosis in human MCF7 cells assessed as early apoptotic cells at 5.3 uM incubated for 24 hrs by Annexin V-FITC/PI staining based flow cytometric analysis (reference value: 2.93 %); type: functional
MCF7 [37] = assay: Cell cycle arrest in human MCF7 cells assessed as accumulation of cells at S phase at 5.3 uM incubated for 24 hrs by PI staining based flow cytometric analysis (reference value: 22.93 %); type: functional
MCF7 [38] = assay: Anticancer activity against human MCF7 cells assessed as reduction in cell viability at 5.3 uM preincubated with ML-193 for 1 hrs followed by compound addition and measured after 48 hrs by SRB assay; type: functional, cell-based
MCF7 [39] = assay: Cell cycle arrest in human MCF7 cells assessed as accumulation of cells at G1 phase at 5.3 uM incubated for 24 hrs by PI staining based flow cytometric analysis (reference value: 63.9 %); type: functional
MCF7 [40] = assay: Induction of apoptosis in human MCF7 cells assessed as necrotic cells at 5.3 uM incubated for 24 hrs by Annexin V-FITC/PI staining based flow cytometric analysis (reference value: 4.02 %); type: functional
MCF7 [41] = assay: Induction of ROS production in human MCF7 cells assessed as DCFDA intensity at 5.3 uM incubated for 24 hrs by flow cytometric analysis (reference value: 0.95 %); type: functional
MCF7 [42] = assay: Cell cycle arrest in human MCF7 cells assessed as accumulation of cells at G2/M phase at 5.3 uM incubated for 24 hrs by PI staining based flow cytometric analysis (reference value: 13.7 %); type: functional
MCF7 [43] = assay: Anticancer activity against human MCF7 cells assessed as reduction in cell viability at 5.3 uM preincubated with capsazepine for 1 hrs followed by compound addition and measured after 48 hrs by SRB assay; type: functional, cell-based
MCF7 [44] = assay: Anticancer activity against human MCF7 cells assessed as reduction in cell viability at 5.3 uM incubated for 48 hrs by SRB assay relative to control; type: functional
MCF7 [45] = assay: Induction of apoptosis in human MCF7 cells assessed as viable cells at 5.3 uM incubated for 24 hrs by Annexin V-FITC/PI staining based flow cytometric analysis (reference value: 88.20 %); type: functional; conditions: read-out: Activity
MCF7 [46] = assay: Induction of apoptosis in human MCF7 cells assessed as late apoptotic cells at 5.3 uM incubated for 24 hrs by Annexin V-FITC/PI staining based flow cytometric analysis (reference value: 4.85 %); type: functional
MCF7 [47] = assay: Anticancer activity against human MCF7 cells assessed as reduction in cell viability at 5.3 uM preincubated with LY320135 for 1 hrs followed by compound addition and measured after 48 hrs by SRB assay; type: functional, cell-based
MCF7 [48] = assay: Anticancer activity against human MCF7 cells assessed as reduction in cell viability at 5.3 uM preincubated with SR144528 for 1 hrs followed by compound addition and measured after 48 hrs by SRB assay; type: functional, cell-based
MCF7 [49] = assay: Induction of mitochondrial membrane loss in human MCF7 cells assessed as fold change at 5.3 uM incubated for 24 hrs by Mitotracker dye based flow cytometric analysis relative to control; type: functional
MCF7 [50] = assay: Anticancer activity against human MCF7 cells assessed as reduction in cell viability at 5.3 uM preincubated with GW9662 for 1 hrs followed by compound addition and measured after 48 hrs by SRB assay; type: functional, cell-based

Compound	microsomal CLint at 5 µM [1] [µL/min/mg]	inhibition (INH) (Cytochrome P450 2C19)	inhibition (INH) (Cytochrome P450 1A2)	solubility [6] [µg/mL]	hepatic extraction ratio at 0.5 h, 5 µM [9]	microsomal CLint at 5 µM [11] [µL/min/mg]	IC50 at 48 h [13] [µM]	inhibition at 20 µM (HCT-116 [15]) [%]	CLint scaled at 5 µM [16] [mL/min/kg]	CLint scaled at 5 µM [17] [mL/min/kg]	permeability [19]	selectivity ratio [20]	IC50 (HCT-116 [21]) [µM]	hepatic extraction ratio at 0.5 h, 5 µM [22]	inhibition at 20 µM (MCF7 [24]) [%]	half-life at 5 µM [27] [min]	selectivity ratio [28]	IC50 (MCF7 [31]) [µM]	solubility [32] [µg/mL]	half-life at 5 µM [33] [min]	other results
C=C(C)[C@@H]1CCC(C)=C[C@H]1c1c(O)cc(CCCCC)c2c1OCN(C1CCC1)C2	146	Active	Active	> 1500	0.87	77	28.1	63.4	580	90	Impermeable	6.4	8.6	0.81	84.9	10	3.2	4.4	40 (≈ 97.7 µM)	18	Activity (MCF7 [2]): 17.87%; fold change (FC) (MCF7 [3]): 5; viability at 4.4 µM (MCF7 [4]): 67.8%; Activity (MCF7 [5]): Active; Activity (MCF7 [7]): 7.61%; Activity (MCF7 [8]): 6.2%; Activity (MCF7 [10]): Active; inhibition at 4.4 µM (MCF7 [12]): ~17%; Activity (MCF7 [14]): Active; Activity (MCF7 [18]): 10.42%; Activity (MCF7 [23]): 73.84%; Activity (MCF7 [25]): Active; Activity (MCF7 [26]): 48.65%; Activity (MCF7 [29]): 18.39%; Activity (MCF7 [30]): 15.74%; solubility [34]: > 1500 µg/mL; inhibition (MCF7 [35]): Active
C=C(C)[C@@H]1CCC(C)=C[C@H]1c1c(O)cc(CCCCC)c2c1OCN(CCCC)C2	46	Active	Active	80 (≈ 194 µM)	0.67	44	37.1	82.6	182	51	Permeable	7	4.2	0.71	85.3	31	8.8	5.3	80 (≈ 194 µM)	32	Activity (MCF7 [36]): 8.93%; Activity (MCF7 [37]): 15.48%; Activity (MCF7 [38]): Active; Activity (MCF7 [39]): 75.72%; Activity (MCF7 [40]): 9.86%; Activity (MCF7 [41]): 12.05%; Activity (MCF7 [42]): 8.8%; Activity (MCF7 [43]): Active; Activity (MCF7 [44]): 46.45%; viability at 5.3 µM (MCF7 [45]): 66.1%; Activity (MCF7 [46]): 15.07%; Activity (MCF7 [47]): Active; Activity (MCF7 [48]): Active; fold change (FC) (MCF7 [49]): 4.3; solubility [34]: > 1500 µg/mL; inhibition (MCF7 [35]): Active; Activity (MCF7 [50]): Active

From ChEMBL document CHEMBL6071200, “Discovery of Ring-Annulated Analogues of Cannabidiol as Potential Anticancer Agents: Synthesis and Biological Evaluation” (ACS Med Chem Lett, 2024)
